Laboratory results reported in US12391737B2, “Soluble NPY2 receptor agonists” (Boehringer Ingelheim International GmbH, priority 2020, dated 2025).

What was measured:
[1] = biological target: T1, Human Neuropeptide Y2 Receptor (Homo sapiens, UniProt P49146); assay: Radioligand binding competition assay (RLB); settings: Table 3, 125I-PYY(1-36) competition; read-out: Ki
T1 construct: purchased CHEMICON HTS066M
T1 sequence (P49146 1-381): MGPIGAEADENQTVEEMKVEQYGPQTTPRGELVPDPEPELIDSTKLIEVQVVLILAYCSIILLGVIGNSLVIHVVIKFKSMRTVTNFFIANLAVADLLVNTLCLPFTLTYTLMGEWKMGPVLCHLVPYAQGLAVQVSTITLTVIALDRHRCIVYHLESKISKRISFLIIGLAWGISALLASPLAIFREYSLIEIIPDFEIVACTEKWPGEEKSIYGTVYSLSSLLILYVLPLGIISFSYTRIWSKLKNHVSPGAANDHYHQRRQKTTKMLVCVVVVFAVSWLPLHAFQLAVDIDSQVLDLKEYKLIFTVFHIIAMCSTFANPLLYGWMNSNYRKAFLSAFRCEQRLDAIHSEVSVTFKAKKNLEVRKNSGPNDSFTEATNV
Method in brief: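 IC50 values come from sigmoidal dose-response fits of scintillation counts after peptides competed for radioligand binding at receptor membranes (0.5 μg protein/well). Incubation ran 2 h at room temperature in HEPES buffer, pH 7.4, with Mg2+, Ca2+ and 0.2% ovalbumin.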

Solubility determination = settings: for Sol6: pH 6; for Sol7: pH 7
Method in brief: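 Shake-flask style: 10 mg/ml peptide (TFA salt), 0.1 M sodium diphosphate pH 6.4/7.0, 600 rpm, 2 h, RT; filter; dilute 1 mg/ml in 50% MeCN; RP-UPLC, 0–100% B over 2 min, 50 °C. Solubility = sample/control area ratio. Final pH recorded.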

Row | SMILES | Ki [1] | Sol6 (Solubility determination) | Sol7 (Solubility determination)
1 | CC(C)CC(=O)N[C@@H](C)C(=O)N1CCC[C@H]1C(=O)N[C@@H](C)C(=O)N[C@@H](CCCCNC(=O)CCCCCNC(=O)CC[C@H](NC(=O)CCCCCCCCCCCCCCCCC(=O)O)C(=O)O)C(=O)N1CCC[C@H]1C(=O)N[C@@H](CCC(=O)O)C(=O)N[C@@H](CCC(=O)O)C(=O)N[C@@H](CC(=O)O)C(=O)N[C@@H](C)C(=O)N[C@@H](CO)C(=O)N[C@@H](CCC(=O)O)C(=O)N[C@@H](CCC(=O)O)C(=O)N[C@@H](CCC(=O)O)C(=O)N[C@@H](CC(C)C)C(=O)N[C@@H](CCC(N)=O)C(=O)N[C@@H](CCCNC(=N)N)C(=O)N[C@@H](Cc1ccc(O)cc1)C(=O)N[C@@H](Cc1ccc(O)cc1)C(=O)N[C@H](C(=O)N[C@@H](CO)C(=O)N[C@@H](CC(C)C)C(=O)N[C@@H](CCCNC(=N)N)C(=O)N[C@@H](Cc1c[nH]cn1)C(=O)N[C@@H](Cc1ccc(O)cc1)C(=O)N[C@@H](Cc1ccc(O)cc1)C(=O)N[C@@H](CC(N)=O)C(=O)N[C@@H](Cc1c[nH]c2ccccc12)C(=O)N[C@@H](CC(C)C)C(=O)N[C@H](C(=O)N[C@@H](CCCNC(=N)N)C(=O)N[C@@H](CCC(N)=O)C(=O)N[C@@H](CCCNC(=N)N)C(=O)N[C@@H](Cc1ccc(O)cc1)C(N)=O)[C@@H](C)O)C(C)C [Compound 185, N{alpha-4}-(3-methylbutanoyl)-N{epsilon-7}-(6-[(4S)-4-carboxy-4-(17-carboxyheptadecanamido)butanamido]hexanoyl)-[4A,6A,7K,9E,14E,18Q,22V,28Y,30W,31L]-hPYY(4-36)] | 2.06 nM | 8.7 mg/mL | 8.9 mg/mL
2 | CC(C)CC(=O)N[C@@H](C)C(=O)N1CCC[C@H]1C(=O)N[C@@H](C)C(=O)N[C@@H](CCCCNC(=O)CCCCCNC(=O)CC[C@H](NC(=O)CCCCCCCCCCCCCCCCC(=O)O)C(=O)O)C(=O)N1CCC[C@H]1C(=O)N[C@@H](CCC(=O)O)C(=O)N[C@@H](CCC(=O)O)C(=O)N[C@@H](CC(=O)O)C(=O)N[C@@H](C)C(=O)N[C@@H](CO)C(=O)N1CCC[C@H]1C(=O)N[C@@H](CCC(=O)O)C(=O)N[C@@H](CCC(=O)O)C(=O)N[C@@H](CC(C)C)C(=O)N[C@@H](CCC(N)=O)C(=O)N[C@@H](CCCNC(=N)N)C(=O)N[C@@H](Cc1ccc(O)cc1)C(=O)N[C@@H](Cc1ccc(O)cc1)C(=O)N[C@H](C(=O)N[C@@H](CCC(N)=O)C(=O)N[C@@H](CC(C)C)C(=O)N[C@@H](CCCNC(=N)N)C(=O)N[C@@H](Cc1c[nH]cn1)C(=O)N[C@@H](Cc1ccc(O)cc1)C(=O)N[C@@H](Cc1ccc(O)cc1)C(=O)N[C@@H](CC(N)=O)C(=O)N[C@@H](Cc1c[nH]c2ccccc12)C(=O)N[C@@H](CC(C)C)C(=O)N[C@H](C(=O)N[C@@H](CCCNC(=N)N)C(=O)N[C@@H](CCC(N)=O)C(=O)N[C@@H](CCCNC(=N)N)C(=O)N[C@@H](Cc1ccc(O)cc1)C(N)=O)[C@@H](C)O)C(C)C [Compound 59, N{alpha-4}-(3-methylbutanoyl)-N{epsilon-7}-(6-[(4S)-4-carboxy-4-(17-carboxyheptadecanamido)butanamido]hexanoyl)-[4A,6A,7K,9E,18Q,22V,23Q,28Y,30W,31L]-hPYY(4-36)] | 1.93 nM | 9.7 mg/mL | 9.6 mg/mL
3 | CC(C)CC(=O)N[C@@H](C)C(=O)N1CCC[C@H]1C(=O)N[C@@H](C)C(=O)N[C@@H](CCCCNC(=O)CCCCCNC(=O)CC[C@H](NC(=O)CCCCCCCCCCCCCCCCC(=O)O)C(=O)O)C(=O)N1CCC[C@H]1C(=O)N1CCC[C@H]1C(=O)N[C@@H](CCC(=O)O)C(=O)N[C@@H](CC(=O)O)C(=O)N[C@@H](C)C(=O)N[C@@H](CO)C(=O)N1CCC[C@H]1C(=O)N[C@@H](CCC(=O)O)C(=O)N[C@@H](CCC(=O)O)C(=O)N[C@@H](CC(C)C)C(=O)N[C@@H](CCC(N)=O)C(=O)N[C@@H](CCCNC(=N)N)C(=O)N[C@@H](Cc1ccc(O)cc1)C(=O)N[C@@H](Cc1ccc(O)cc1)C(=O)N[C@H](C(=O)N[C@@H](CCC(=O)O)C(=O)N[C@@H](CC(C)C)C(=O)N[C@@H](CCCNC(=N)N)C(=O)N[C@@H](Cc1c[nH]cn1)C(=O)N[C@@H](Cc1ccc(O)cc1)C(=O)N[C@@H](Cc1ccc(O)cc1)C(=O)N[C@@H](CC(N)=O)C(=O)N[C@@H](Cc1c[nH]c2ccccc12)C(=O)N[C@@H](CC(C)C)C(=O)N[C@H](C(=O)N[C@@H](CCCNC(=N)N)C(=O)N[C@@H](CCC(N)=O)C(=O)N[C@@H](CCCNC(=N)N)C(=O)N[C@@H](Cc1ccc(O)cc1)C(N)=O)[C@@H](C)O)C(C)C [Compound 62, N{alpha-4}-(3-methylbutanoyl)-N{epsilon-7}-(6-[(4S)-4-carboxy-4-(17-carboxyheptadecanamido)butanamido]hexanoyl)-[4A,6A,7K,9P,18Q,22V,23E,28Y,30W,31L]-hPYY(4-36)] | 1.44 nM | 8.8 mg/mL | 9.3 mg/mL
4 | CC[C@H](C)[C@H](NC(=O)[C@H](CCC(=O)O)NC(=O)[C@H](CCC(=O)O)NC(=O)[C@@H]1CCCN1C(=O)[C@H](CO)NC(=O)[C@H](C)NC(=O)[C@H](C)NC(=O)[C@H](CCC(=O)O)NC(=O)[C@@H]1CCCN1C(=O)[C@@H]1CCCN1C(=O)[C@H](CCCCNC(=O)CCCCCNC(=O)CC[C@H](NC(=O)CCCCCCCCCCCCCCCCC(=O)O)C(=O)O)NC(=O)[C@H](CCC(=O)O)NC(=O)[C@@H]1CCCN1C(=O)[C@H](C)NC(=O)CC(C)C)C(=O)N[C@@H](CCC(N)=O)C(=O)N[C@@H](CCCNC(=N)N)C(=O)N[C@@H](Cc1ccc(O)cc1)C(=O)N[C@@H](Cc1ccc(O)cc1)C(=O)N[C@H](C(=O)N[C@@H](C)C(=O)N[C@@H](CC(C)C)C(=O)N[C@@H](CCCNC(=N)N)C(=O)N[C@@H](Cc1c[nH]cn1)C(=O)N[C@@H](Cc1ccc(O)cc1)C(=O)N[C@@H](Cc1ccc(O)cc1)C(=O)N[C@@H](CC(N)=O)C(=O)N[C@@H](Cc1c[nH]c2ccccc12)C(=O)N[C@@H](CC(C)C)C(=O)N[C@H](C(=O)N[C@@H](CCCNC(=N)N)C(=O)N[C@@H](CCC(N)=O)C(=O)N[C@@H](CCCNC(=N)N)C(=O)N[C@@H](Cc1ccc(O)cc1)C(N)=O)[C@@H](C)O)C(C)C [Compound 158, N{alpha-4}-(3-methylbutanoyl)-N{epsilon-7}-(6-[(4S)-4-carboxy-4-(17-carboxyheptadecanamido)butanamido]hexanoyl)-[4A,7K,9P,11A,17I,18Q,22V,23A,28Y,30W,31L]-hPYY(4-36)] | 0.58 nM | 0.0 mg/mL | 0.4 mg/mL
5 | CC(C)CC(=O)N[C@@H](C)C(=O)N1CCC[C@H]1C(=O)N[C@@H](CCC(=O)O)C(=O)N[C@@H](CCCCNC(=O)CCCCCNC(=O)CC[C@H](NC(=O)CCCCCCCCCCCCCCCCC(=O)O)C(=O)O)C(=O)N1CCC[C@H]1C(=O)N[C@@H](CCC(=O)O)C(=O)N[C@@H](CCC(=O)O)C(=O)N[C@@H](CC(=O)O)C(=O)N[C@@H](C)C(=O)N[C@H](C(=O)N1CCC[C@H]1C(=O)N[C@@H](CCC(=O)O)C(=O)N[C@@H](CCC(=O)O)C(=O)N[C@@H](CC(C)C)C(=O)N[C@@H](CCC(N)=O)C(=O)N[C@@H](CCCNC(=N)N)C(=O)N[C@@H](Cc1ccc(O)cc1)C(=O)N[C@@H](Cc1ccc(O)cc1)C(=O)N[C@H](C(=O)N[C@@H](CCC(N)=O)C(=O)N[C@@H](CC(C)C)C(=O)N[C@@H](CCCNC(=N)N)C(=O)N[C@@H](Cc1c[nH]cn1)C(=O)N[C@@H](Cc1ccc(O)cc1)C(=O)N[C@@H](Cc1ccc(O)cc1)C(=O)N[C@@H](CC(N)=O)C(=O)N[C@@H](Cc1c[nH]c2ccccc12)C(=O)N[C@@H](CC(C)C)C(=O)N[C@H](C(=O)N[C@@H](CCCNC(=N)N)C(=O)N[C@@H](CCC(N)=O)C(=O)N[C@@H](CCCNC(=N)N)C(=O)N[C@@H](Cc1ccc(O)cc1)C(N)=O)[C@@H](C)O)C(C)C)[C@@H](C)O [Compound 51, N{alpha-4}-(3-methylbutanoyl)-N{epsilon-7}-(6-[(4S)-4-carboxy-4-(17-carboxyheptadecanamido)butanamido]hexanoyl)-[4A,7K,9E,13T,18Q,22V,23Q,28Y,30W,31L]-hPYY(4-36)] | 2.59 nM | 9.6 mg/mL | 9.7 mg/mL
6 | CC(C)CC(=O)N[C@@H](C)C(=O)N1CCC[C@H]1C(=O)N[C@@H](CCC(=O)O)C(=O)N[C@@H](CCCCNC(=O)CCCCCNC(=O)CC[C@H](NC(=O)CCCCCCCCCCCCCCCCC(=O)O)C(=O)O)C(=O)N1CCC[C@H]1C(=O)N[C@@H](CCC(=O)O)C(=O)N[C@@H](CCC(=O)O)C(=O)N[C@@H](CC(=O)O)C(=O)N[C@@H](C)C(=O)N[C@H](C(=O)N1CCC[C@H]1C(=O)N[C@@H](CCC(=O)O)C(=O)N[C@@H](CCC(=O)O)C(=O)N[C@@H](CC(C)C)C(=O)N[C@@H](CCC(N)=O)C(=O)N[C@@H](CCCNC(=N)N)C(=O)N[C@@H](CCC(N)=O)C(=O)N[C@@H](Cc1ccc(O)cc1)C(=O)N[C@H](C(=O)N[C@@H](CO)C(=O)N[C@@H](CC(C)C)C(=O)N[C@@H](CCCNC(=N)N)C(=O)N[C@@H](Cc1c[nH]cn1)C(=O)N[C@@H](Cc1ccc(O)cc1)C(=O)N[C@@H](Cc1ccc(O)cc1)C(=O)N[C@@H](CC(N)=O)C(=O)N[C@@H](Cc1c[nH]c2ccccc12)C(=O)N[C@@H](CC(C)C)C(=O)N[C@H](C(=O)N[C@@H](CCCNC(=N)N)C(=O)N[C@@H](CCC(N)=O)C(=O)N[C@@H](CCCNC(=N)N)C(=O)N[C@@H](Cc1ccc(O)cc1)C(N)=O)[C@@H](C)O)C(C)C)[C@@H](C)O [Compound 88, N{alpha-4}-(3-methylbutanoyl)-N{epsilon-7}-(6-[(4S)-4-carboxy-4-(17-carboxyheptadecanamido)butanamido]hexanoyl)-[4A,7K,9E,13T,18Q,20Q,22V,28Y,30W,31L]-hPYY(4-36)] | 16.3 nM | 8.7 mg/mL | 8.9 mg/mL
